# pIC50: −log10 of the molar value. Values joined by “and” are separate entries in the source; they are usually repeats but may differ in a detail not shown here. Equal entries are not always repeated. Where two headings read alike, the source gives them in different places. Non-standard residues stand in square brackets, D forms with d. Residues, ends and D or L forms follow the SMILES beside them. Groups on a side chain read outwards from the residue. *: point of attachment. DM1Mal(CH2)2CO = COc1cc2cc(c1Cl)N(C)C(=O)C[C@H](OC(=O)[C@H](C)N(C)C(=O)CCSC1CC(=O)N(CCC(=O)*)C1=O)[C@]1(C)O[C@H]1[C@H](C)[C@@H]1C[C@@](O)(NC(=O)O1)[C@H](OC)/C=C/C=C(\C)C2; X2 = CC(=O)N[C@@H](CSC1CC(=O)N(CCC(=O)*)C1=O)C(=O)O; Dolaproine = CO[C@@H]([C@@H]1CCCN1)[C@@H](C)C(=O)O; Dil = CC[C@H](C)[C@H](NC)[C@@H](CC(=O)O)OC; NMe2Val = CC(C)[C@@H](C(=O)*)N(C)C; Cit = NC(=O)NCCC[C@H](N)C(=O)O; PEG4 = NCCOCCOCCOCCOCCC(=O)O
# Columns and labels:
# [1] = test system: SK-BR-3 (ErbB2-expressing) cells; assay: Cytotoxic activity, Alamar Blue assay; type: cell-based
# Procedure: (§1) Log phase cultures of cell lines SK-OV-3 (ErbB2-expressing), SK-BR-3 (ErbB2-expressing), BT-474 (ErbB2-expressing) and MDA-MB-231 (ErbB2 negative) were collected and cells plated at seeding densities ranging from 1,500 to 12,000 cells/well in 96-well microtiter plates according to pre-determined conditions.
# (§2) Assessment of cellular growth was done using Alamar Blue (available from Thermo Fisher Scientific) dye reduction assay. Alamar Blue was added to cells to constitute 10% culture volume. Cells were incubated for 4 to 6 hours, and dye reduction was measured by fluorescence on an EnSpire plate reader (Perkin Elmer). Background corrected fluorescence measurements were transformed in % scale by considering vehicle value as 100% activity (relative measurements). Next, relative measurements were analyzed using GraphPad Prism software to derive relative IC50. All experiments were done twice with 3 replicates per concentration. Error bars: SEM (n=3). Cytotoxicity of AF and AF-Arg on ErbB2-expressing SK-OV-3 and SK-BR-3 cells after 72 and 120 h of treatment. SK-OV-3 and SK-BR-3 cells were seeded the day before treatment in complete culture medium. After overnight resting, cells were treated with decreasing concentrations of test compounds in complete culture medium (AF: 10 μM-1 pM; AF-Arg: 10 μM-1 pM, log-dilution).
# (§3) SK-OV-3, SK-BR-3 and MDA-MB-231 cells were seeded the day before treatment in complete culture medium.
# [2] = test system: SK-OV-3 (ErbB2-expressing) cells; assay: Cytotoxic activity, Alamar Blue assay; type: cell-based
# Procedure: as §1, §2, §3
# [3] = biological target: T1, recombinant human Cathepsin B (Homo sapiens, UniProt P07858); assay: Recombinant human Cathepsin B-induced cleavage (in vitro enzymatic cleavage assay, UHPLC-MS/MS); type: biochemical; conditions: for half-life at 10 μM: human, 10 μM test compound, Cathepsin B 2 μg/mL, 25 mM MES buffer pH 5.0, 37° C., read-out: T1/2 Compound; for Ratio (T1/2 Compound/T1/2 Reference): reference Cys-MC-Val-Cit-PABC-MMAF; for cleavage rate compared to reference PABC compound (times faster): versus Cys-MC-Val-Cit-PABC-MMAF
# T1 construct: purchased R&D Systems (Bio-Techne AG) 953-CY-010
# Procedure: Cat B-induced cleavage of the compounds of the present invention was evaluated according to the in vitro enzymatic cleavage assay using recombinant human Cathepsin B and UHPLC-MS/MS analysis as described below.
# Reference compounds Cys-MC-Val-Cit-PABC-MMAF and MMAF were used as positive controls.
# The in vitro enzymatic assay was conducted at 37° C. with the test compounds at a concentration of 10 μM (2.5 μM when the test compound is an antibody-drug conjugate) in the presence of activated recombinant human Cathepsin B enzyme at 2 μg/mL in a 25 mM MES buffer pH 5.0. The enzymatic cleavage reaction was stopped for each defined time point by mixing an equal volume of acetonitrile+0.1% FA containing an internal standard (warfarine at 8 μM).
# Analysis was conducted using a Waters Acquity UPLC System coupled to a Waters Xevo TQ triple quad mass spectrometer. UHPLC was conducted depending on the test compounds with a BEH C8 1.7 μm 100×2.1 mm or BEH C18 1.7 μm 50×2.1 mm or HSS T3 1.7 μm 50×2.1 mm columns heated at 45° C. or 50° C. and fitted with 2 μm insert filter pre-columns (available from Waters), and solvent systems A1 (H2O+0.1% FA) and B1 (acetonitrile+0.1% FA) at a flow rate of 0.6 mL/min and a 10-95% gradient of B1 over 1.9 min.
# MS/MS was performed using electrospray ionization (ESI) interface in positive mode and specific MRM transitions for each tested compound.
# [4] = test system: BT-474 (ErbB2-expressing) cells; assay: Cytotoxic activity, Alamar Blue assay; type: cell-based; conditions: ADC3 study, read-out: Relative IC50 at 96 h (day 4)
# Procedure: as §1
# as §2, with “log-dilution). […]” for “log-dilution).”
# [5] = test system: MDA-MB-231 (ErbB2 negative) cells; assay: Cytotoxic activity, Alamar Blue assay; type: cell-based; conditions: read-out: Relative IC50 at 96 h (day 4)
# Procedure: as §1, §2, §3
# BT-474 and MDA-MB-231 cells were seeded the day before treatment in complete culture medium.
# [6] = test system: SK-BR-3 (ErbB2-expressing) cells; assay: Cytotoxic activity, Alamar Blue assay; type: cell-based; conditions: ADC1 study, read-out: Relative IC50 at 96 h (day 4)
# [7] = test system: SK-OV-3 (ErbB2-expressing) cells; assay: Cytotoxic activity, Alamar Blue assay; type: cell-based; conditions: ADC1 study, read-out: Relative IC50 at 96 h (day 4)
# [8] = SK-BR-3, run 1, 72 h, read-out: Relative IC50 at 72 h (day 3)
# [9] = SK-BR-3, run 1, 120 h, read-out: Relative IC50 at 120 h (day 5)
# [10] = SK-BR-3, run 2, 72 h, read-out: Relative IC50 at 72 h (day 3)
# [11] = SK-BR-3, run 2, 120 h, read-out: Relative IC50 at 120 h (day 5)
# [12] = SK-OV-3, run 1, 72 h, read-out: Relative IC50 at 72 h (day 3)
# [13] = SK-OV-3, run 1, 120 h, read-out: Relative IC50 at 120 h (day 5)
# [14] = SK-OV-3, run 2, 72 h, read-out: Relative IC50 at 72 h (day 3)
# [15] = SK-OV-3, run 2, 120 h, read-out: Relative IC50 at 120 h (day 5)
molecule,measurement,setting,value
"CC[C@H](C)[C@@H]([C@@H](CC(=O)N1CCC[C@H]1[C@H](OC)[C@@H](C)C(=O)N[C@@H](Cc1ccccc1)C(=O)O)OC)N(C)C(=O)[C@@H](NC(=O)[C@H](C(C)C)N(C)C)C(C)C [AF, Auristatin F, reference compound] (NMe2Val-V[Dil][Dolaproine]F-OH)",pIC50,[1]; [8],7.43
same,pIC50,[1]; [9],7.73
same,pIC50,[1]; [10],7.27
same,pIC50,[1]; [11],7.66
same,pIC50,[2]; [12],7.08
same,pIC50,[2]; [13],7.00 and ~7.00
same,pIC50,[2]; [14],6.81
same,pIC50,[2]; [15],6.84
"CC[C@H](C)[C@@H]([C@@H](CC(=O)N1CCC[C@H]1[C@H](OC)[C@@H](C)C(=O)N[C@@H](Cc1ccccc1)C(=O)NCCCC[C@H](NC(=O)[C@H](CCCNC(=N)N)NC(=O)[C@H](CCCCNC(=O)CCN1C(=O)CC(SCCC(=O)N(C)[C@@H](C)C(=O)O[C@H]2CC(=O)N(C)c3cc(cc(OC)c3Cl)C/C(C)=C/C=C/[C@@H](OC)[C@@]3(O)C[C@H](OC(=O)N3)[C@@H](C)[C@@H]3O[C@@]23C)C1=O)NC(=O)[C@H](CCCNC(=N)N)NC(=O)[C@H](Cc1ccccc1)NC(=O)CCOCCOCCOCCOCCNC(=O)CCN1C(=O)CC(SC[C@H](NC(C)=O)C(=O)O)C1=O)C(=O)N[C@@H](Cc1ccccc1)C(=O)O)OC)N(C)C(=O)[C@@H](NC(=O)[C@H](C(C)C)N(C)C)C(C)C (stereo partly drawn) [Compound 30, Ac-Cys-Mal-PEG4-Phe-Arg-Lys(Mal-DM1)-Arg-Lys(AF)-Phe-OH] ({X2-PEG4}-FRK(DM1Mal(CH2)2CO)RK([Phe-Dolaproine-Dil-Val-NMe2Val])F-OH)",half-life at 10 μM,[3],1.1 min
same,Ratio (T1/2 Compound/T1/2 Reference),[3],0.07
same,cleavage rate compared to reference PABC compound (times faster),[3],more than 10 fold
"CC[C@H](C)[C@@H]([C@@H](CC(=O)N1CCC[C@H]1[C@H](OC)[C@@H](C)C(=O)N[C@@H](Cc1ccccc1)C(=O)N[C@@H](CCCNC(N)=O)C(=O)N[C@@H](CCCCNC(=O)CCN1C(=O)CC(SCCC(=O)N(C)[C@@H](C)C(=O)O[C@H]2CC(=O)N(C)c3cc(cc(OC)c3Cl)C/C(C)=C/C=C/[C@@H](OC)[C@@]3(O)C[C@H](OC(=O)N3)[C@@H](C)[C@@H]3O[C@@]23C)C1=O)C(=O)N[C@@H](Cc1ccccc1)C(=O)N[C@@H](CCCCNC(=O)CCOCCOCCOCCOCCNC(=O)CCN1C(=O)CC(SC[C@H](NC(C)=O)C(=O)O)C1=O)C(=O)N[C@@H](Cc1ccccc1)C(=O)O)OC)N(C)C(=O)[C@@H](NC(=O)[C@H](C(C)C)N(C)C)C(C)C (stereo partly drawn) [Compound 31, AF-Cit-Lys(Mal-DM1)-Phe-Lys(PEG4-Mal-Cys-Ac)-Phe-OH] (NMe2Val-V[Dil][Dolaproine]F[Cit]K(DM1Mal(CH2)2CO)FK([PEG4-X2])F-OH)",half-life at 10 μM,[3],1.08 min
same,Ratio (T1/2 Compound/T1/2 Reference),[3],0.08
same,cleavage rate compared to reference PABC compound (times faster),[3],more than 10 fold
"CC[C@H](C)[C@@H]([C@@H](CC(=O)N1CCC[C@H]1[C@H](OC)[C@@H](C)C(=O)N[C@@H](Cc1ccccc1)C(=O)N[C@@H](CCCNC(N)=O)C(=O)N[C@@H](CCCCn1cc(COC(=O)NCCCC[C@H](NC(=O)CCOCCOCCOCCOCCOCCNC(=O)CCN2C(=O)CC(SC[C@H](NC(C)=O)C(=O)O)C2=O)C(=O)NCCOCCOCCOCCOCCOCCC(=O)N[C@@H](CCCCNC(=O)OCc2cn(CCCC[C@H](NC(=O)[C@H](CCCNC(N)=O)NC(=O)[C@H](Cc3ccccc3)NC(=O)[C@H](C)[C@@H](OC)[C@@H]3CCCN3C(=O)C[C@@H](OC)[C@H]([C@@H](C)CC)N(C)C(=O)[C@@H](NC(=O)[C@H](C(C)C)N(C)C)C(C)C)C(=O)N[C@@H](Cc3ccccc3)C(=O)O)nn2)C(=O)NCC(N)=O)nn1)C(=O)N[C@@H](Cc1ccccc1)C(=O)O)OC)N(C)C(=O)[C@@H](NC(=O)[C@H](C(C)C)N(C)C)C(C)C (stereo partly drawn) [Compound 32, Ac-Cys-Mal-[PEG5-Lys(AF-Cit-Lys(Y)-Phe-OH)]2-Gly-NH2]",half-life at 10 μM,[3],0.98 min
same,Ratio (T1/2 Compound/T1/2 Reference),[3],0.06
same,cleavage rate compared to reference PABC compound (times faster),[3],~20 fold
"COc1cc2cc(c1Cl)N(C)C(=O)C[C@H](OC(=O)[C@H](C)N(C)C(=O)CCS)[C@]1(C)O[C@H]1[C@H](C)[C@@H]1C[C@@](O)(NC(=O)O1)[C@H](OC)/C=C/C=C(\C)C2 [DM1, N2′-deacetyl-N2′-(3-mercapto-1-oxopropyl)-maytansine, reference compound]",pIC50,"[4]; BT-474, run 1, 96 h",8.55
same,pIC50,"[4]; BT-474, run 2, 96 h",8.52
same,pIC50,"[5]; MDA-MB-231, run 1, 96 h, ADC3 study",7.35
same,pIC50,"[5]; MDA-MB-231, run 2, 96 h, ADC3 study",7.24
AF-Arg,pIC50,"[6]; SK-BR-3, run 1, 96 h",~7.04
same,pIC50,"[6]; SK-BR-3, run 2, 96 h",6.89
same,pIC50,"[5]; MDA-MB-231, run 1, 96 h, ADC1 study",7.82
same,pIC50,"[5]; MDA-MB-231, run 2, 96 h, ADC1 study",8.23
same,pIC50,"[7]; SK-OV-3, run 1, 96 h",7.08
same,pIC50,"[7]; SK-OV-3, run 2, 96 h",6.61
same,pIC50,[1]; [8],~7.01
same,pIC50,[1]; [9],7.68
same,pIC50,[1]; [10],~6.96
same,pIC50,[1]; [11],7.60
same,retained cytotoxic activity relative to the native drug (AF),"[1]; SK-BR-3 cells, 120 h",greater than 85%
same,pIC50,[2]; [12],6.75
same,pIC50,[2]; [13],6.83
same,pIC50,[2]; [14],6.62
same,pIC50,[2]; [15],6.69
same,retained cytotoxic activity relative to the native drug (AF),"[2]; SK-OV-3 cells, 120 h",about 70%
Arg-PEG4-Phe-Arg-Glu(Sar-OCPT)-Arg-Phe-Arg-OH [Compound 16],"Cat B-induced cleavage, in words",[3],rapidly cleaved
Arg-PEG4-Phe-Arg-[Glu(Sar-OCPT)-Phe]2-OH [Compound 17],"Cat B-induced cleavage, in words",[3],rapidly released
Arg-PEG4-[Phe-Arg-Glu(Sar-OCPT)-Arg]2-OH [Compound 18],"Cat B-induced cleavage, in words",[3],rapidly released

# From patent publication US20220062371A1, “LIGAND-DRUG-CONJUGATES AS SUBSTRATES FOR SELECTIVE CLEAVAGE BY THE EXOPEPTIDASE ACTIVITY OF CATHEPSIN B” (DEBIOPHARM RESEARCH & MANUFACTURING S.A., priority 2017, published 2022)
